The values below come from patent US20260308158A1, “TARGETING RNAS ASSOCIATED WITH TAUOPATHIES WITH SMALL MOLECULES” (University of Florida Research Foundation, Incorporated, priority 2023, published 2026).

Assay [1] deals with DDPAC MAPT exon 10 mini-gene luciferase reporter. The experiment in a line: Luciferase reporter assay of exon 10 splicing, DDPAC mini-gene in HeLa cells. The class given is cell-based. As for the experimental part:
Luciferase-reporter Assay to Study Exon 10 Alternative Splicing. The exon 10 mini-genes, both WT and DDPAC and mutant thereof, fused to firefly luciferase, have been previously described.^18 HeLa cells were seeded in 60 mm diameter dishes and incubated for 12-16 h to 70% confluency. They were then transfected with WT, WT+I17T, DDPAC, or DDPAC+I17T luciferase reporter minigenes using JetPrime (Polyplus Transfection) per the manufacturer's recommended protocol and incubated for 4 h. After transfection, the cells were collected by trypsinization and re-seeded in 96-well plates at 0.2×10^5 cells per well, followed by treatment of compounds after 4 h. Compound stocks prepared in DMSO were diluted in growth medium and added to cells with final DMSO concentration at 0.1% (v/v). After a 48 h treatment period, the cells were washed with 1× DPBS. Each well was added with a mixture of 10 μL WST-1 reagent and 90 μL of growth medium. After incubation at 37° C. for 45 min, absorbance was measured at 450 and 690 nm. A690 as background was subtracted from A450 to obtain A450′. After removal of WST-1/DMEM from wells, the cells were washed again with 1×DPBS and treated with 100 μL of One-Glo EX reagent (Promega, E8110) per well. The plate was incubated at room temperature for 20 min and the luminescence was measured with a […] plate reader (1000 ms integration time). The resulted luminescence was normalized to A450′.

The subject of assay [2] is DDPAC MAPT mini-gene (exon 10 splicing). In words: 4R/3R MAPT mRNA by RT-qPCR, HeLa cells transfected with DDPAC mini-gene. It counts as cell-based. How it is done: RNA Isolation and Real-Time Quantitative PCR (RT-qPCR). HeLa cells were treated as described in the Luciferase Reporter assay to Study Exon 10 Alternative Splicing. LAN5 cells were seeded in 12-well plates at 0.2×10^6 cells per well, treated with compound or ASO, and incubated for 48 h. Compound stocks prepared in DMSO and ASO stocks prepared in water were diluted in growth medium and added to cells. Total RNA was extracted from cells and analyzed via RT-qPCR to determine levels of 3R and 4R tau mRNA. In brief, the cells were washed with 1×DPBS and then lysed in the well using 300 μL of Lysis Buffer provided in a Quick-RNA MiniPrep kit (Zymo Research), which was used to extract total RNA per the manufacturer's protocol including the on-column DNase I digestion. The concentration of total RNA was measured by NanoDrop 2000 (Thermo Fisher Scientific). Only samples with OD260/OD280>1.8 were carried forward for analysis. Reverse transcription (RT) was carried out on 200 ng of total RNA using a qScript cDNA synthesis kit (QuantaBio) in a total volume of 10 μL according to the manufacturer's protocol. […] 4R/3R ratio were analyzed using ΔΔCt method using Equation 2: […]

The target in assay [3] is DDPAC I17T mutant RNA. The experiment in a line: Fluorescent binding affinity, DDPAC I17T mutant RNA. How it is done: (§1) Fluorescent Binding Affinity Measurements. Binding assays were completed as previously described.^30 Briefly, the RNA of interest was folded in 1× Assay Buffer-1 (AB1: 8 mM Na2HPO4, pH 7.0, 185 mM NaCl, and 1 mM EDTA) by heating at 95° C. for 30 s followed by slowly cooling to room temperature. Bovine serum albumin (BSA) was then added to a final concentration of 40 μg/mL to afford 1× Assay Buffer-2 (AB2: 8 mM Na2HPO4, pH 7.0, 185 mM NaCl, 1 mM EDTA, and 40 μg/mL BSA). The RNA solution was serial diluted with 1×AB2. Then, compound of interest was added to the RNA solutions to a final concentration of 0.5 μM. […] Fluorescence intensity was measured using a Tecan Plate Reader (Gain: 100, Integration time: 40 μs). […] The change in fluorescence of the small molecule was calculated by its comparison to samples lacking RNA. Binding affinity was calculated using Equation 1, as previously described:^30
(§2) where I and I0 are the measured fluorescence intensity of the compound with or without RNA, respectively, Δε is the difference between the fluorescence intensity with the infinite concentration of RNA and the fluorescence intensity without RNA, [SM]0 and [RNA]0 are the concentrations of the small molecule (SM) and RNA, respectively, and Kd is the dissociation constant.

Assay [4] has as its target 7-deaza-guanosine WT RNA. In words: Fluorescent binding affinity, 7-deaza-guanosine WT RNA. To be noted: n=3, read-out: Kd (affinity for the modified RNA). As for the experimental part: as §1, §2
Assay [5] relates to DDPAC I17T model RNA. The experiment in a line: Optical melting, DDPAC I17T RNA. The class given is binding. To be noted: 2 at 1.5 μM. How it is done:
Optical Melting Experiments. The thermal stabilities of WT, DDPAC, and DDPAC+I17T model RNAs were analyzed by optical melting in the presence or absence of compound 1 or 2 as previously described.^18 The RNAs (2 μM) were heated to 95° C. in 1×PBS buffer and slowly cooled to room temperature. The samples were then cooled to 15° C. in the presence of compound 1 (10 μM; 0.1% (v/v) DMSO), 2 (1.5 μM; 0.1% (v/v) DMSO) or vehicle (0.1% (v/v) DMSO) and then heated to 85° C. at a rate of 1° C. per min. Absorbance as a function of temperature was measured at 260 nm using a Beckman Coulter DU800 UV/vis spectrophotometer. Melting curves were fitted with MeltWin 3.5.^31

For `COc1cc(N)ncc1CCCN(C)CCCn1cnc2c3ccccc3n(C)c2c1=O` [Compound 2, 3-(3-((3-(6-amino-4-methoxypyridin-3-yl)propyl)(methyl)amino)propyl)-5-methyl-3,5-dihydro-4H-pyrimido[5,4-b]indol-4-one], the “improvement in cellular luciferase reporter assay compared to 1” value in assay [1] (2 vs 1) is given as “at least 10 fold”. Further, in assay [1] (DDPAC mini-gene, HeLa), the “exclusion of exon 10 among eight conjugates (reduction of luciferase activity)” value is given as “excluded exon 10 to the greatest extent”. Further, in assay [1] (Homo sapiens, HeLa, DDPAC mini-gene, 48 h, read-out: IC50, inhibition of luciferase activity (exon 10 inclusion)), the IC50 (commonly the midpoint of a concentration-inhibition curve) was 0.6 ± 0.3 µM. Besides, the “PSI10 (PSI of MAPT exon 10) vs vehicle” value in assay [2] (HeLa, DDPAC mini-gene) is reported as “downregulated”. Besides, the inhibition at 1.5 µM in assay [2] (Homo sapiens, 2 at 1.5 μM, 48 h, HeLa DDPAC mini-gene, read-out: reduction of 4R/3R ratio (mRNA)) was 42 ± 3%. For the same compound, the “Kd (estimated; no saturable binding)” value in assay [3] was above 50 µM. Moreover, in assay [4], the dissociation constant (Kd) (as a rule, the concentration at which binding is half-saturated) was 3.4 ± 0.9 µM. Moreover, the “effect on Tm” value in assay [5] is listed as “no effect on the Tm”.
